{"source": "patent US20260354380A1", "about": "“PYRAZOLO PESTICIDAL COMPOUNDS” (BASF SE, priority 2022, published 2026)", "format_in_all_cases": "in vivo", "key": {"Aedes aegypti": {"test_system": "Aedes aegypti", "test": "whole plant or invertebrate", "settings": "800 ppm; larvae; 2 days", "summary_of_the_method": "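Visual larval mortality was assessed 2 days after treatment (28±1 °C, 80±5% RH). Formulations of compounds or mixtures (75% water/25% DMSO) were applied by micro-atomizer onto diet of 5-15 newly hatched larvae per water-filled well, two replicates per concentration.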"}, "Anthonomus grandis": {"test_system": "Anthonomus grandis", "test": "Action on Boll Weevil (Anthonomus grandis)", "settings": "800 ppm; egg and larval mortality; 5 days", "summary_of_the_method": "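Diet in 96-well plates, seeded with 5-10 A. grandis eggs, received a spray of formulated compound (25% DMSO in water) at a range of concentrations, duplicated. Mortality of eggs and larvae was judged by eye after 5 days at about 25±1 °C, 75±5% relative humidity.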"}, "Heliothis virescens": {"test_system": "Heliothis virescens", "test": "Action on Tobacco Budworm (Heliothis virescens)", "settings": "800 ppm; egg and larval mortality; 5 days", "summary_of_the_method": "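Eggs (15-25 per well) on diet were held 5 days at about 28±1 °C, 80±5% RH, then egg and larval mortality was scored by eye. Beforehand the diet had been sprayed with compound dilutions formulated in water/DMSO 75:25 v/v, in two replicates.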"}, "Spodoptera eridania": {"test_system": "Spodoptera eridania", "test": "Action on Southern Armyworm (Spodoptera eridania), 2nd Instar Larvae", "settings": "300 ppm; 2nd instar larvae; 4 days after treatment", "summary_of_the_method": "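2nd-instar Spodoptera eridania larvae (about 10–11 per pot) confined on sprayed, dried Lima bean plants (1st true leaf stage) in sealed bags. Spray solutions: acetone/water 1:1 plus 0.01% surfactant. Held 4 days near 25 °C, 20–40% RH; assessed for mortality and feeding reduction against untreated controls.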"}, "Plutella xylostella": {"test_system": "Plutella xylostella", "test": "Action on Diamond Back Moth (Plutella xylostella), microtiter plates, insect diet, eggs", "settings": "800 ppm; egg and larval mortality; 5 days", "procedure": "Example B8: Action on Diamond Back Moth (Plutella xylostella)\nFor evaluating control of diamond back moth (Plutella xylostella) the test unit consisted of 96-well-microtiter plates containing an insect diet and 15-25 P. xylostella eggs. The compounds or mixtures were formulated using a solution containing 75% water and 25% DMSO. Different concentrations of formulated compounds or mixtures were sprayed onto the insect diet at 5 μl, using a custom-built micro atomizer, at two replications. For experimental mixtures in these tests identical volumes of both mixing partners at the desired concentrations respectively, were mixed together. After application, microtiter plates were incubated at 28±1 °C, 80±5% RH for 5 days. Egg and larval mortality was then visually assessed."}}}
{"smiles": "Cc1ccc(C(C)C)c(N2C(=O)CS/C2=N\\C(=O)Nc2ccc(-n3nc(C)c(NC(=O)c4ccc(Cl)cc4F)c3C)cc2Cl)c1", "note": "[Example C-106]", "values": [{"measurement": "mortality in comparison with untreated controls", "setting": "Aedes aegypti", "value": "at least 50%"}, {"measurement": "mortality in comparison with untreated controls", "setting": "Anthonomus grandis", "value": "at least 75%"}, {"measurement": "mortality in comparison with untreated controls", "setting": "Heliothis virescens", "value": "at least 75%"}, {"measurement": "mortality in comparison with untreated controls", "setting": "Spodoptera eridania", "value": "at least 75%"}, {"measurement": "mortality in comparison with untreated controls", "setting": "Plutella xylostella", "value": "at least 75%"}]}
{"smiles": "Cc1ccc(C(C)C)c(N2C(=O)CSC2=NC(=O)Nc2ccc(-n3nc(C)c(NC(=O)c4ccc(C#N)cc4F)c3C)cc2)c1", "note": "[Example C-107]", "values": [{"measurement": "mortality in comparison with untreated controls", "setting": "Aedes aegypti", "value": "at least 50%"}, {"measurement": "mortality in comparison with untreated controls", "setting": "Anthonomus grandis", "value": "at least 75%"}, {"measurement": "mortality in comparison with untreated controls", "setting": "Heliothis virescens", "value": "at least 75%"}, {"measurement": "mortality in comparison with untreated controls", "setting": "Spodoptera eridania", "value": "at least 75%"}, {"measurement": "mortality in comparison with untreated controls", "setting": "Plutella xylostella", "value": "at least 75%"}]}
{"smiles": "Cc1ccc(C(C)C)c(N2C(=O)CSC2=NC(=O)Nc2ccc(-n3nc(C)c(NC(=O)c4ccc(C#N)c(F)c4)c3C)cc2)c1", "note": "[Example C-108]", "values": [{"measurement": "mortality in comparison with untreated controls", "setting": "Aedes aegypti", "value": "at least 50%"}, {"measurement": "mortality in comparison with untreated controls", "setting": "Anthonomus grandis", "value": "at least 75%"}, {"measurement": "mortality in comparison with untreated controls", "setting": "Heliothis virescens", "value": "at least 75%"}, {"measurement": "mortality in comparison with untreated controls", "setting": "Spodoptera eridania", "value": "at least 75%"}, {"measurement": "mortality in comparison with untreated controls", "setting": "Plutella xylostella", "value": "at least 75%"}]}
{"smiles": "Cc1ccc(C(C)C)c(N2C(=O)CSC2=NC(=O)Nc2ccc(-n3nc(C)c(NC(=O)c4ccc(Cl)c(F)c4)c3C)cc2)c1", "note": "[Example C-109]", "values": [{"measurement": "mortality in comparison with untreated controls", "setting": "Aedes aegypti", "value": "at least 50%"}, {"measurement": "mortality in comparison with untreated controls", "setting": "Anthonomus grandis", "value": "at least 75%"}, {"measurement": "mortality in comparison with untreated controls", "setting": "Heliothis virescens", "value": "at least 75%"}, {"measurement": "mortality in comparison with untreated controls", "setting": "Spodoptera eridania", "value": "at least 75%"}, {"measurement": "mortality in comparison with untreated controls", "setting": "Plutella xylostella", "value": "at least 75%"}]}
{"smiles": "Cc1ccc(C(C)C)c(N2C(=O)CSC2=NC(=O)Nc2ccc(-n3nc(C)c(NC(=O)c4ccc(Cl)cc4F)c3C)cc2)c1", "note": "[Example C-110]", "values": [{"measurement": "mortality in comparison with untreated controls", "setting": "Aedes aegypti", "value": "at least 50%"}, {"measurement": "mortality in comparison with untreated controls", "setting": "Anthonomus grandis", "value": "at least 75%"}, {"measurement": "mortality in comparison with untreated controls", "setting": "Heliothis virescens", "value": "at least 75%"}, {"measurement": "mortality in comparison with untreated controls", "setting": "Spodoptera eridania", "value": "at least 75%"}, {"measurement": "mortality in comparison with untreated controls", "setting": "Plutella xylostella", "value": "at least 75%"}]}
{"smiles": "Cc1ccc(C(C)C)c(N2C(=O)CSC2=NC(=O)Nc2ccc(-n3nc(C)c(NC(=O)c4ccc(Cl)cc4)c3C)cc2)c1", "note": "[Example C-111]", "values": [{"measurement": "mortality in comparison with untreated controls", "setting": "Aedes aegypti", "value": "at least 50%"}, {"measurement": "mortality in comparison with untreated controls", "setting": "Anthonomus grandis", "value": "at least 75%"}, {"measurement": "mortality in comparison with untreated controls", "setting": "Heliothis virescens", "value": "at least 75%"}, {"measurement": "mortality in comparison with untreated controls", "setting": "Spodoptera eridania", "value": "at least 75%"}, {"measurement": "mortality in comparison with untreated controls", "setting": "Plutella xylostella", "value": "at least 75%"}]}
{"smiles": "Cc1ccc(C(C)C)c(N2C(=O)CSC2=NC(=O)Nc2ccc(-n3nc(C)c(NC(=O)c4ccc(F)cc4)c3C)cc2)c1", "note": "[Example C-112]", "values": [{"measurement": "mortality in comparison with untreated controls", "setting": "Aedes aegypti", "value": "at least 50%"}, {"measurement": "mortality in comparison with untreated controls", "setting": "Anthonomus grandis", "value": "at least 75%"}, {"measurement": "mortality in comparison with untreated controls", "setting": "Heliothis virescens", "value": "at least 75%"}, {"measurement": "mortality in comparison with untreated controls", "setting": "Spodoptera eridania", "value": "at least 75%"}, {"measurement": "mortality in comparison with untreated controls", "setting": "Plutella xylostella", "value": "at least 75%"}]}
{"smiles": "Cc1ccc(C(C)C)c(N2C(=O)CSC2=NC(=O)Nc2ccc(-n3nc(C)c(NC(=O)c4ccc(F)c(F)c4)c3C)cc2)c1", "note": "[Example C-114]", "values": [{"measurement": "mortality in comparison with untreated controls", "setting": "Aedes aegypti", "value": "at least 50%"}, {"measurement": "mortality in comparison with untreated controls", "setting": "Anthonomus grandis", "value": "at least 75%"}, {"measurement": "mortality in comparison with untreated controls", "setting": "Heliothis virescens", "value": "at least 75%"}, {"measurement": "mortality in comparison with untreated controls", "setting": "Spodoptera eridania", "value": "at least 75%"}, {"measurement": "mortality in comparison with untreated controls", "setting": "Plutella xylostella", "value": "at least 75%"}]}
{"smiles": "Cc1ccc(C(C)C)c(N2C(=O)CSC2=NC(=O)Nc2ccc(-n3nc(C)c(NC(=O)c4ccc(Cl)c(Cl)c4)c3C)cc2)c1", "note": "[Example C-115]", "values": [{"measurement": "mortality in comparison with untreated controls", "setting": "Aedes aegypti", "value": "at least 50%"}, {"measurement": "mortality in comparison with untreated controls", "setting": "Anthonomus grandis", "value": "at least 75%"}, {"measurement": "mortality in comparison with untreated controls", "setting": "Heliothis virescens", "value": "at least 75%"}, {"measurement": "mortality in comparison with untreated controls", "setting": "Spodoptera eridania", "value": "at least 75%"}, {"measurement": "mortality in comparison with untreated controls", "setting": "Plutella xylostella", "value": "at least 75%"}]}
{"smiles": "Cc1ccc(C(C)C)c(N2C(=O)CSC2=NC(=O)Nc2ccc(-n3nc(C)c(NC(=O)c4ccc(Br)cc4)c3C)cc2)c1", "note": "[Example C-116]", "values": [{"measurement": "mortality in comparison with untreated controls", "setting": "Aedes aegypti", "value": "at least 50%"}, {"measurement": "mortality in comparison with untreated controls", "setting": "Anthonomus grandis", "value": "at least 75%"}, {"measurement": "mortality in comparison with untreated controls", "setting": "Heliothis virescens", "value": "at least 75%"}, {"measurement": "mortality in comparison with untreated controls", "setting": "Spodoptera eridania", "value": "at least 75%"}, {"measurement": "mortality in comparison with untreated controls", "setting": "Plutella xylostella", "value": "at least 75%"}]}
